Measured values published in ChEMBL document CHEMBL5131540, “Optimizing Shape Complementarity Enables the Discovery of Potent Tricyclic BCL6 Inhibitors” (J Med Chem, 2022).
Converted amounts (≈) assume the structure as drawn.

Legend:
[1] = Kinetic aqueous solubility of the compound in 4% DMSO/HEPES buffer at pH 8 incubated for 20 hrs by NMR analysis; assay type: physicochemical; conditions: read-out: Kinetic_solubility
in vitro = conditions: PAMPA, pH 7.4
Description: Permeability of the compound at pH 7.4 by PAMPA

Row | SMILES | solubility kinetic at 20 h [1] [µM] | Papp (in vitro) [×10⁻⁶ cm/s]
1 | C[C@@H]1CCOc2c(c3cc(Nc4ccnc(Cl)c4C#N)ccc3n(C)c2=O)N1 | 190 (≈ 75.2 µg/mL) | –
2 | CCNc1cc(=O)[nH]c2ccc(Nc3ccnc(Cl)c3C#N)cc12 | – | < 0.1
